Consider ten molecules from patent publication US9822130B2, “Triazolo-pyrazinyl derivatives useful as soluble guanylate cyclase activators” (Merck Sharp & Dohme Corp., priority 2014, dated 2017).

This assay addresses T1, sGC α1/β1 heterodimer stably expressed in CHO-K1 cell line (CHO-K1/sGC) (Homo sapiens, UniProt Q02108+Q02153).
T1 construct: expressed in transfected cells
T1 sequence (Q02108 1-690): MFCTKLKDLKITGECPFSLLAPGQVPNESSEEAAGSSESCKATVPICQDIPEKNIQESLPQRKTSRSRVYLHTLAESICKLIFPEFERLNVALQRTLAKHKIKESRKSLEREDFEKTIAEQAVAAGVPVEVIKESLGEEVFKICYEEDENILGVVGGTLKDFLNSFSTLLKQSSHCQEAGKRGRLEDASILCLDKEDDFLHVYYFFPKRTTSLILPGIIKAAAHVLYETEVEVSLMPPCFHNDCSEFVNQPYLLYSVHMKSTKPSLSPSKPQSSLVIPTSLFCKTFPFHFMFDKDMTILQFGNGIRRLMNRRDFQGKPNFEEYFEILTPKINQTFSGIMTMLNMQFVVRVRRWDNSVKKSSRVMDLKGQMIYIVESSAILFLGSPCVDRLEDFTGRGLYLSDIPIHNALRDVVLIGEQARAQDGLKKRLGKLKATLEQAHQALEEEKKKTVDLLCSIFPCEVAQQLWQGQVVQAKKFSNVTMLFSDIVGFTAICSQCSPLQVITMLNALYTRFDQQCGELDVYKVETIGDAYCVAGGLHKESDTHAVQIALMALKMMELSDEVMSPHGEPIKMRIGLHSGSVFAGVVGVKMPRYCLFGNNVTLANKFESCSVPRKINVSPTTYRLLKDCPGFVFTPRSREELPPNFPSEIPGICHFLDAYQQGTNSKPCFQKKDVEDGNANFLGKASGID
T1 sequence (Q02153 1-619): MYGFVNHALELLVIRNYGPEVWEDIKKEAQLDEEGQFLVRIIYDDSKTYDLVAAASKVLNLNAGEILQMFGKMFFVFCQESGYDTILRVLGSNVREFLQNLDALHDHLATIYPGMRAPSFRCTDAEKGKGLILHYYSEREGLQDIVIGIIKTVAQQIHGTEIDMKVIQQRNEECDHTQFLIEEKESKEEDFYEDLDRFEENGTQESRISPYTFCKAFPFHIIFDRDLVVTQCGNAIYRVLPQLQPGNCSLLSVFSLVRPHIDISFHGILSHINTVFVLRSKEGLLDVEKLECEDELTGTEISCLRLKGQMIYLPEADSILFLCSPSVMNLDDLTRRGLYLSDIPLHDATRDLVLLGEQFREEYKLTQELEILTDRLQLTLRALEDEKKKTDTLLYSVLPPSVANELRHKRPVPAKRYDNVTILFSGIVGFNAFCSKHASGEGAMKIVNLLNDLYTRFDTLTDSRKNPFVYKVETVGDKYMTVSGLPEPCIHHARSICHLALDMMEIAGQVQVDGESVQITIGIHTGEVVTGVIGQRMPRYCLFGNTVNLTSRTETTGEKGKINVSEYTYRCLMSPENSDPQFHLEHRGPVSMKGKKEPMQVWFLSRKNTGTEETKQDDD
Kind of assay: Cell-based sGC Functional Assay (CASA Assay), cGMP generation. As to conditions: CHO-K1/sGC cells, 1 hr at 37° C., cGMP by HTRF, 4P fit; presence or absence of 1 μM DETA-NO not given; read-out: IP (nM) (inflection point). The method, boiled down: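 CHO-K1 cells stably expressing human sGC α1/β1 (4×10^5/mL, 0.5 mM IBMX) were treated with compounds (2.5% DMSO final) ± 1 μM DETA-NO for 1 hr at 37° C. Intracellular cGMP measured by HTRF. Activity expressed as % of Compound A maximal cGMP; IP and maximum fold induction from 4P fit.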
(In TR-FRET formats the signal depends on donor and acceptor labels being close together.)
Turning to `CC1(c2ccccn2)C(=O)Nc2nc(-c3cn4ncnc4c(CCCC(F)(F)F)n3)nc(N)c21` (stereo not shown) [Example 36B, 4-amino-5-methyl-5-(pyridin-2-yl)-2-(8-(4,4,4-trifluorobutyl)-[1,2,4]triazolo[1,5-a]pyrazin-6-yl)-5H-pyrrolo[2,3-d]pyrimidin-6(7H)-one], the EC50 amounted to 56.5 nM.

Consider `CC1(c2ccccc2)C(=O)Nc2nc(-c3cn4ncnc4c(CCCC(F)(F)F)n3)nc(N)c21` (stereo not shown) [Example 37B, 4-amino-5-methyl-5-phenyl-2-(8-(4,4,4-trifluorobutyl)-[1,2,4]triazolo[1,5-a]pyrazin-6-yl)-5H-pyrrolo[2,3-d]pyrimidin-6(7H)-one], for which the EC50 amounted to 11.5 nM.

Regarding `CC1(c2ccc(F)c(F)c2)C(=O)Nc2nc(-c3cn4ncnc4c(CCCC(F)(F)F)n3)nc(N)c21` (stereo not shown) [Example 38B, 4-amino-5-(3,4-difluorophenyl)-5-methyl-2-(8-(4,4,4-trifluorobutyl)-[1,2,4]triazolo[1,5-a]pyrazin-6-yl)-5H-pyrrolo[2,3-d]pyrimidin-6(7H)-one], the EC50 was 11 nM.

In the case of `COc1ccc(C2(C3CC3)C(=O)Nc3nc(-c4cn5ncnc5c(CCCC(F)(F)F)n4)nc(N)c32)nc1` (stereo not shown) [Example 39A, 4-amino-5-cyclopropyl-5-(5-methoxypyridin-2-yl)-2-(8-(4,4,4-trifluorobutyl)-[1,2,4]triazolo[1,5-a]pyrazin-6-yl)-5H-pyrrolo[2,3-d]pyrimidin-6(7H)-one], the EC50 came out at 20.1 nM.

For the molecule `COc1ccc(C2(C)C(=O)Nc3nc(-c4cn5ncnc5c(CCCC(F)(F)F)n4)nc(N)c32)nc1` (stereo not shown) [Example 40A, 4-amino-5-(5-methoxypyridin-2-yl)-5-methyl-2-(8-(4,4,4-trifluorobutyl)-[1,2,4]triazolo[1,5-a]pyrazin-6-yl)-5H-pyrrolo[2,3-d]pyrimidin-6(7H)-one], the EC50 is 98.9 nM.

`Nc1nc(-c2cn3ncnc3c(CCCC(F)(F)F)n2)nc2c1C(c1ncc(Cl)cn1)(C1CC1)C(=O)N2` (stereo not shown) [Example 41A, 4-amino-5-(5-chloropyrimidin-2-yl)-5-cyclopropyl-2-(8-(4,4,4-trifluorobutyl)-[1,2,4]triazolo[1,5-a]pyrazin-6-yl)-5H-pyrrolo[2,3-d]pyrimidin-6(7H)-one]: the EC50 came to 27.8 nM.

In the case of `CC1(c2ccc(F)c(Cl)c2)C(=O)Nc2nc(-c3cn4ncnc4c(CCCC(F)(F)F)n3)nc(N)c21` (stereo not shown) [Example 42B, 4-amino-5-(3-chloro-4-fluorophenyl)-5-methyl-2-(8-(4,4,4-trifluorobutyl)-[1,2,4]triazolo[1,5-a]pyrazin-6-yl)-5H-pyrrolo[2,3-d]pyrimidin-6(7H)-one], the EC50 was determined as 8.7 nM.

As for `CC1(c2ccc(C(F)F)cn2)C(=O)Nc2nc(-c3cn4ncnc4c(CCCC(F)(F)F)n3)nc(N)c21` (stereo not shown) [Example 43B, 4-amino-5-(5-(difluoromethyl)pyridin-2-yl)-5-methyl-2-(8-(4,4,4-trifluorobutyl)-[1,2,4]triazolo[1,5-a]pyrazin-6-yl)-5H-pyrrolo[2,3-d]pyrimidin-6(7H)-one], the EC50 came to 45.6 nM.

Turning to `Cc1ccc(C2(C)C(=O)Nc3nc(-c4cn5ncnc5c(CCCC(F)(F)F)n4)nc(N)c32)nc1` (stereo not shown) [Example 46B, 4-amino-5-methyl-5-(5-methylpyridin-2-yl)-2-(8-(4,4,4-trifluorobutyl)-[1,2,4]triazolo[1,5-a]pyrazin-6-yl)-5H-pyrrolo[2,3-d]pynmidin-6(7H)-one], the EC50 was determined as 10.1 nM.

Regarding `CC1(c2ccc(C#N)cn2)C(=O)Nc2nc(-c3cn4ncnc4c(CCCC(F)(F)F)n3)nc(N)c21` (stereo not shown) [Example 48A, 6-(4-amino-5-methyl-6-oxo-2-(8-(4,4,4-trifluorobutyl)-[1,2,4]triazolo[1,5-a]pyrazin-6-yl)-6,7-dihydro-5H-pyrrolo[2,3-d]pyrimidin-5-yl)nicotinonitrile], the EC50 came to 77.9 nM.
